US20030129168A1, “Expression of proteins for treating asthma via ligand mediated activation of their encoding genes” (ARIAD Gene Therapeutics, Inc., priority 1996, published 2003)
Like-named read-outs stand apart in the source and are kept apart here.

How the values were obtained:
[1] = test system: ZFHD1-FKBPx3 and FKBPx3-VP16 or FKBPx3-p65; experiment: Dimerizer-dependent transcriptional activation (SEAP) in transiently transfected 293 cells; format: cell-based
Description: 293 cells were grown in D-MEM (Gibco BRL) supplemented with 10% Bovine Calf Serum. Cells in 35 mm dishes (2.5×10^5 cells/dish) were transiently transfected with use of calcium phosphate precipitation (Ausubel et. al., 1994). Each dish received 375 ng pZHWTx8SVSEAP; 12ng pCGNNZFHD1-FKBPx3 and 25ng pCGNNFKBPx3-VP16 or pCGNNFKBPx3-p65. Following transfection, 2 ml fresh media was added and supplemented with FK1012 to the desired concentration. After a 24 hour incubation […] aliquot of media was removed and assayed for SEAP activity as described (Spencer et. al., 1993).
An analgous experiment was conducted using a wholly synthetic dimerizer, AP1510, in place of FK1012. Like FK1012, AP1510 is a divalent FKBP-binder and is capable of dimerizing chimeric proteins which contain FKBP domains. In this experiment, 293 cells were grown in DMEM supplemented with 10% Bovine Calf Serum. Cells in 10 cm dishes were transiently transfected by calcium phosphate precipitation (Natesan and Gilman, 1995, Mol. Cell Biol, 15, 5975-5982). Each plate received 1 μg of pZHWTx8SVSEAP reporter, 50 ng pCGNNZFHD1-FKBP3×3, 50 ng pCGNNF3p65 or pCGNNF3VP16. Following transfection, 2 ml fresh media was added and supplemented with AP1510 to the desired concentration. After 24 hrs, 100 μl of the media was assayed for SEAP activity as described (Spencer et al, 1993).

[2] = Solubility of AP1510 in culture medium; format: physicochemical; settings: aqueous buffer, kinetic from ethanol stock; serial dilution in (aqueous) culture medium; read-out: highest concentration ensuring complete solubility
Description: In the latter case it is recommended that the highest concentration not exceed 5 uM, to ensure complete solubility in the (aqueous) medium. […]

cells [3] = experiment: Toxicity in cell culture; format: cell-based
[4] = Immunosuppressive activity
[5] = test system: FKBP12-containing fusion proteins; experiment: Gene regulation applications of dimerizer (SEAP or hGH reporter systems); format: cell-based; settings: for transcription activation with stably integrated constructs: cells in which the transcription factor and reporter gene constructs are all stably integrated
Description: After overnight incubation (or longer), assay for target gene expression.
Secreted alkaline phosphatase activity can be easily measured from the supernatant of appropriately transfected cells using fluorescence-(see (10)), or chemiluminescence-(Tropix, Bedford, Mass.) based assays. Samples to be tested should first be incubated at 65° C. for 1 hour to inactivate endogenous alkaline phosphatase activity.

[6] = test system: myristoylated chimeric CD3/FKBP12 (MZF3E) receptor; experiment: FK1012 activation of myristoylated chimeric CD3/FKBP12 (MZF3E) receptor, NFAT SEAP reporter in Jurkat T cells; format: cell-based, human
Description: In an illustrative case, this was accomplished by creating an intracellular receptor comprised of a small fragment of Src sufficient for posttranslational myristoylation (M), the cytoplasmic tail of zeta (Z; a component of the […] was also used), three consecutive FKBP12s (F3) and a flu epitope tag (E). […] The promoter of the SEAP reporter gene was constructed to be transcriptionally activated by nuclear factor of activated T cells (NFAT), which is assembled in the nucleus following TCR-signaling.
Specifically, 5 μg of the eukaryotic expression vector, pBJ5, containing a myristoylated chimeric receptor was co-transfected with 4 μg NFAT-SX. MZE, MZF1E, MZF2E and MZF3E contain 0, 1, 2, or 3 copies of FKBP12, respectively, downstream of a myristoylated CD3 cytoplasmic domain (see FIG. 2 of PCT/US94/01617). As a control, 5 μg of pBJ5 was used in a parallel transfection. After 24 hours, aliquots of each transfection containing approximately 10^5 cells were incubated with log dilutions of the drug, FK1012B, as indicated. As a positive control and to control for transfection efficiency, ionomycin (1 μm) and PMA (25 ng/ml) were added to aliquots from each transfection. After an additional 12 hour incubation, the supernatants were assayed for alkaline phosphatase activity and these activities were expressed relative to that of the positive control samples. […] Compare FIGS. 7 and 8 of PCT/US94/01617.

MZF3Eflu and MZF3Eflag = experiment: Coimmunoprecipitation of epitope-tagged chimeras in Jurkat T cells (in vivo FK1012-induced protein dimerization); format: cell-based, human
Description: The following experiments confirmed that intracellular aggregation of the MZF3E receptor is indeed induced by the FK1012. The influenza haemagglutinin epitope-tag (flu) of the MZF3E-construct was exchanged with a different epitope-tag (flag-M2). The closely related chimeras, MZF3Eflu and MZF3Eflag, were coexpressed in Jurkat T cells. Immunoprecipitation experiments using anti-Flag-antibodies coupled to agarose beads were performed after the cells were treated with FK1012A. […] In absence of FK1012A, no coimmunoprecipitation of MZF3Eflu is observed. […] This reflects the requirement for aggregation observed with both the endogenous T cell receptor and our artificial receptor MZF3E.

zeta-chain = experiment: In vitro kinase assay after immunoprecipitation, Jurkat cells stably transfected with MZF3E; format: cell-based, human
[7] = test system: ZFHD1-FKBPx3 and FRAP-p65; experiment: Rapamycin-dependent hGH expression in transfected HT1080 cells in culture; format: cell-based; settings: HT1080 cells in cell culture
Description: (§1) Using the approach described in Example 7, constructs were prepared encoding the ZFHD1-FKBPx3 fusion protein, a second fusion protein containing the FKBP:rapaymcin binding (“FRB”) region of FRAP linked to the p6^5 activation domain, and a reporter cassette containing a gene encoding human growth hormone linked to multiple ZFHD1 binding sites. The natural product, rapamycin, forms a ternary complex with FKBP12 and FRAP. Similarly, rapamycin is capable of binding to one or more of the FKBP domains and FRAP FRB domains of the fusion proteins.

[8] = test system: ZFHD1-FKBPx3 and FRAP-p65; experiment: Rapamycin-dependent hGH expression in nu/nu mice implanted with transfected cells; format: in vivo; settings: rapamycin i.v. 10-10,000 μg/kg, serum 17 hours after administration
Description: as §1
2×10^6 cells from the transfected […] culture were administered to nu/nu mice by intramuscular injection. Following cell implantation, rapamycin was administered i.v. over a range of doses (from 10-10,000 μg/kg). Serum samples were collected from the mice 17 hours after rapamycin administration. Control groups consisted of mice that received no cells but 1.0 mg/kg rapamycin (i.v.) as well as mice that received the cells but no rapamycin.

cells [9] = settings: in cell culture; cited from earlier work
FKBP12 [10] = molecular target: T1, FKBP12 (Homo sapiens, UniProt P62942); experiment: FK1012 binding affinity and stoichiometry; settings: linker positioned in the calcineurin binding domain of FK506
T1 sequence (P62942 whole entry, the tested form may be a part): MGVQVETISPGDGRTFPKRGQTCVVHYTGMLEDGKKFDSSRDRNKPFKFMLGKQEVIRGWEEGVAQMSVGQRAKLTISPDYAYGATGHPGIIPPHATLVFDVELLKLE

[11] = test system: calcineurin-mediated TCR signaling; settings: cited from earlier work
[12] = test system: Jurkat cells stably transfected with MZF3E; experiment: Protein-tyrosine phosphorylation in whole cell lysates (alpha-phosphotyrosine antibodies); format: cell-based, human; settings: whole cell lysates at varying times after stimulation
Description: The intracellular domains of the TCR, CD3 and zeta-chains interact with cytoplasmic protein tyrosine kinases following antigen stimulation. Specific members of the Src family (lck and/or fyn) phosphorylate one or more tyrosine residues of activation motifs within these intracellular domains (tyrosine activation motif, TAM). The tyrosine kinase ZAP-70 is recruited (via its two SH2 domains) to the tyrosine phosphorylated T-cell-receptor, activated, and is likely to be involved in the further downstream activation of phospholipase C. […] Tyrosine phosphorylation after treatment of cells with either anti-CD3 MAb or FK1012 was detected using monoclonal alpha-phosphotyrosine antibodies. Whole cell lysates were analysed at varying times after stimulation. […] The pattern consisted of a major band of 70 kDa, probably ZAP-70, and minor bands of 120 kDa, 62 kDa, 55 kDa and 42 kDa.

FKBP12 [13] = molecular target: T1, FKBP12; settings: 2:1 stoichiometry, cited from earlier work
[14] = in vivo

Q: For `CCC(C)(C)C(=O)C(=O)N1CCCC[C@H]1C(=O)O[C@H](CCc1ccc(OC)c(OC)c1)c1cccc(OCC(=O)NCCNC(=O)COc2cccc([C@@H](CCc3ccc(OC)c(OC)c3)OC(=O)[C@@H]3CCCCN3C(=O)C(=O)C(C)(C)CC)c2)c1` [AP1510], which dimerizer-dependent transcriptional activation ([1]; 24 hrs) is on record?
A: supports synthetic dimerizer-dependent transcriptional activation

Q: What about the solubility [2] of the same compound?
A: ≤ 5 µM

Q: What about the toxicity to cells (cells [3]) of the same compound?
A: non-toxic to cells

Q: And the immunosuppressive activity [4]?
A: no immunosuppressive activity

Q: What about the “transcription activation with stably integrated constructs” value [5] of the same compound?
A: activates transcription efficiently

Q: And the “concentration at which expression becomes detectable” value ([5]; gene regulation applications)?
A: approximately 10 nM

Q: What about the “concentration at which expression peaks” value ([5]; gene regulation applications) of the same compound?
A: approximately 100 nM

Q: What about the “transcription activation compared with FK1012” value ([5]; gene regulation applications) of the same compound?
A: activates transcription at lower concentrations and to a higher level than PK1012

Q: Which “termination of FK1012-induced signaling” value [6] does the source give for `CO[C@H]1C[C@@H](C)C/C(C)=C/[C@@H](CCOC(=O)NCc2ccccc2)C(=O)C[C@H](O)[C@@H](C)[C@@H](/C(C)=C/[C@@H]2CC[C@@H](O)[C@H](OC)C2)OC(=O)[C@@H]2CCCCN2C(=O)C(=O)[C@]2(O)O[C@H]1[C@@H](OC)C[C@H]2C` [FK506-M] here?
A: can be terminated by a deaggregation process

Q: What about the toxicity to cells (cells [3]) of the same compound?
A: nontoxic

Q: With `CO[C@H]1C[C@@H](C)C/C(C)=C/[C@@H](CCOC(=O)NCc2ccc(CNC(=O)OCC[C@@H]3/C=C(\C)C[C@H](C)C[C@H](OC)[C@H]4O[C@@](O)(C(=O)C(=O)N5CCCC[C@H]5C(=O)O[C@H](/C(C)=C/[C@@H]5CC[C@@H](O)[C@H](OC)C5)[C@H](C)[C@@H](O)CC3=O)[C@H](C)C[C@@H]4OC)cc2)C(=O)C[C@H](O)[C@@H](C)[C@@H](/C(C)=C/[C@@H]2CC[C@@H](O)[C@H](OC)C2)OC(=O)[C@@H]2CCCCN2C(=O)C(=O)[C@]2(O)O[C@H]1[C@@H](OC)C[C@H]2C` [FK1012] as the compound, how does the “dimerization of FKBP monomer constructs MZF1Eflu and MZF1Eflag” value (MZF3Eflu and MZF3Eflag) read?
A: also dimerized by FK1012A

Q: And the “coimmunoprecipitation of MZF3Eflu with MZF3Eflag” value (MZF3Eflu and MZF3Eflag; FK1012A 1 μM, anti-Flag agarose beads)?
A: is coimmunoprecipitated with MZF^3Eflag

Q: And the “recruitment of kinase activity to the zeta-chain” value (zeta-chain)?
A: resulted in the recruitment of kinase activity to the zeta-chain

Q: For `CO[C@H]1C[C@@H]2CC[C@@H](C)[C@@](O)(O2)C(=O)C(=O)N2CCCC[C@H]2C(=O)O[C@H]([C@H](C)C[C@@H]2CC[C@@H](O)[C@H](OC)C2)CC(=O)[C@H](C)/C=C(\C)[C@@H](O)[C@@H](OC)C(=O)[C@H](C)C[C@H](C)/C=C/C=C/C=C/1C` [rapamycin], which “rapamycin-dependent expression of the hGH gene” value [7] is on record?
A: support rapamycin-dependent expression of the hGH gene in cell culture

Q: What about the “expression of hGH (circulating hGH)” value [8] of the same compound?
A: Dose-responsive expression of hGH was observed

Q: What does the source list for FK1012?
A: EC50 ([6]; MZF3E in human (Jurkat) T cells, NFAT-driven SEAP reporter, read-out: EC50, secretion of alkaline phosphatase (SEAP)): 50 nM; toxic (not toxic up to) (cells [9]): > 0.1 mM; FKBP12 binding (FKBP12 [10]): leaving FKBP12 binding unaffected; concentration of peak transcriptional activation ([1]; 24 hour incubation): 100 nM; inhibition of calcineurin-mediated TCR signaling / signalling pathways [11]: not inhibit calcineurin-mediated TCR signaling; pattern of tyrosine-phosphorylated proteins [12]: A similar pattern of tyrosine-phosphorylated proteins was observed; immunosuppressive activity [4]: abolishes immunosuppressive activity; Kd (FKBP12 [13]; first binding event, read-out: Kd(1)): 0.1 nM; Kd (FKBP12 [13]; second binding event, read-out: Kd(2)): 0.8 nM; transcription activation with stably integrated constructs [5]: poor

Q: With hGH: human growth hormone as the compound, how does the hGH clearance half-life [14] read?
A: less than 2 minutes

Q: What about the “time to undetectable hGH levels” value [14] of the same compound?
A: ≤ 30 min
